Laboratory results published in patent US20220265629A1, “TREATMENT OF SYSTOLIC DYSFUNCTION AND HEART FAILURE WITH REDUCED EJECTION FRACTION WITH THE COMPOUND (R)-4-(1-((3-(DIFLUOROMETHYL)-1-METHYL-1H-PYRAZOL-4-YL)SULFONYL)-1-FLUOROETHYL)-N-(ISOXAZOL-3-YL)PIPERIDINE-1-CARBOXAMIDE” (MyoKardia, Inc., priority 2019, published 2022).
Several values for one entry are separate records, joined by “and”; a condition that tells them apart may be missing. Identical values can stand only once. Like-named read-outs stand apart in the source and are kept apart here.

What was measured:
[1] = HFrEF study Part 2 (MAD Cohorts A-D): plasma pharmacokinetics; assay type: in vivo, human; conditions: for Plasma concentration, Mean / Plasma concentration, Median: MAD cohorts; for AUC / Cmax / half-life: human, plasma, oral; for half-life: read-out: t1/2, λz (converted)
Excerpt: This was a randomized, parallel-group, DB, placebo-controlled, adaptive design, sequential ascending (oral) multiple-close study in stable patients with heart failure. Four MAD Cohorts (A, B, C, D) were enrolled (FIG. 5B). An SRC reviewed results from each cohort and determined the close and confirmed initial sample size for the subsequent cohort. Additionally, the first 3 patients in each cohort had LVEF≥25%; the SRC reviewed preliminary safety data from these patients and decided whether to open cohort enrollment to patients with LVEF<25%.
After Screening and qualification, patients were confined to a clinical testing facility from Day 1 (Check-in) to Day 11. Each patient initially received placebo BID for 2 days (Days 1 and 2) in single-blinded manner (“run-in” during acclimatization to confinement in the Clinical Testing Unit) prior to receiving the randomized DB study drug treatment on Day 3. All patients then received either placebo or active Compound I for 7 days (Days 3 through 9), with a follow-up period with patients discharged from the unit on Day 11. A final follow-up clinic visit was conducted on Day 16. More than one patient could be closed in a cohort at the same time or during the same week depending on administrative issues, i.e., capacity and scheduling.
Patients were closed twice daily (every 12 hours). Doses could occur±2 hours from scheduled dosing times as long as closes were separated by at least 10 hours and by no more than 14 hours. The exception to the twice daily dosing was on Day 9 (last dose of randomized DB study drug treatment). On Day 9, a single morning close was administered.
During the study, multiple evaluations were performed that included: serial TTE assessments (11-14 TTEs per patient on Days 1, 2, 3, 4, 7, 9, 10 and 11); PK sampling (PK sample collected concomitantly with every post-randomization echocardiogram); ECGs (on Days 2, 3, 4, 7, 9, 10, 11 and 16); troponin (collected concomitantly with every post-randomization ECG); and safety laboratory assessments. Confined patients underwent continuous telemetry. Holter monitoring was performed in all patients at baseline (Days 1-2) and at the end of double-blind treatment (Days 7-9). Vital signs were collected daily.
Study medication consisted of Compound I 5 mg tablets, 25 mg tablets, 100 mg tablets, or matching placebo tablets. In Part 1 (SAD), Compound I or placebo was administered after an overnight fast (at least 6 hours), while in Part 2 (MAD), Compound I was administered after a 2 hour fast (Cohort A) or with food (Cohorts B, C, and D). The close was ingested with a minimum of 240 mL of water, but more water was ingested as needed. The entire close was administered over a period of up to 15 minutes. The time of close used to determine future assessments was the time the last tablet was taken. In the cohorts for Part 2 (MAD), a BID regimen was used.
In Part 2 (MAD), Cohort A patients fasted for 2 hours before and 2 hours after dosing. For example, if morning dosing occurred at 8 AM, patients could have a snack at 6 AM and a full breakfast at 10 AM. If afternoon dosing occurred at 8 PM, patients could have dinner at 6 PM and a snack at 10 PM. […] Cohort B, C, and D patients ingested food with each close.

[2] = Unbound (free) fraction in plasma; assay type: in vitro ADME
[3] = MAD Cohort C, 75 mg BID (with food), individual subjects
[4] = MAD Cohort D, 100 mg BID (with food), Mean
[5] = plasma concentration group 2000-<3500 ng/mL (n = 26)
[6] = plasma concentration group <2000 ng/mL (n = 30)
[7] = plasma concentration group ≥3500 ng/mL (n = 13)

Structure (SMILES): Cn1cc(S(=O)(=O)[C@@](C)(F)C2CCN(C(=O)Nc3ccon3)CC2)c(C(F)F)n1 [Compound I, (R)-4-(1-((3-(difluoromethyl)-1-methyl-1H-pyrazol-4-yl)sulfonyl)-1-fluoroethyl)-N-(isoxazol-3-yl)piperidine-1-carboxamide]
- Cmin, SS [1, 3]: 1740 ng/mL and 954 ng/mL and 2660 ng/mL and 3240 ng/mL and 3910 ng/mL and 2530 ng/mL and 2440 ng/mL and 3930 ng/mL and 3900 ng/mL
- t1/2, λz [1, 3]: 13.55 h and 15.34 h and 20.46 h and 23.11 h and 41.54 h and 15.67 h and 13.72 h and 30.37 h and 24.06 h
- AUC_TAU ([1]; MAD Cohort C, 75 mg BID (with food), steady state, individual subjects): 32340 ng·h/mL and 15700 ng·h/mL and 37520 ng·h/mL and 44850 ng·h/mL and 53180 ng·h/mL and 35560 ng·h/mL and 38470 ng·h/mL and 51200 ng·h/mL and 53690 ng·h/mL
- Accumulation Ratio AUC tau [1, 4]: 4.65
- Accumulation Ratio Cmax [1, 4]: 3.89
- Accumulation_Index [1, 4]: 3.30
- Cavg, ss [1, 4]: 5030 ng/mL
- Cmin, SS [1, 4]: 4333 ng/mL
- Plasma concentration, Mean [1, 5]: 2716 ng/mL
- Plasma concentration, Median [1, 5]: 2740 ng/mL
- Plasma concentration, Mean [1, 6]: 1169 ng/mL
- Plasma concentration, Median [1, 6]: 1220 ng/mL
- Plasma concentration, Mean [1, 7]: 4448 ng/mL
- Plasma concentration, Median [1, 7]: 4290 ng/mL
- AUC ([1]; 50 mg, MAD Cohort B, 50 mg BID (with food), Mean, read-out: AUCtau, Day 1): 7300 ng·h/mL
- Cmax ([1]; 50 mg, MAD Cohort B, 50 mg BID (with food), Mean, read-out: Cmax, Day 1): 806 ng/mL
- Cmax ([1]; 50 mg, MAD Cohort B, 50 mg BID (with food), Mean, read-out: Cmax, SS): 2770 ng/mL
- half-life ([1]; 50 mg, MAD Cohort B, 50 mg BID (with food), Mean): 25.1 h
- AUC ([1]; 50 mg, MAD Cohort B, 50 mg BID (with food), individual subjects, read-out: AUCtau, Day 1): 7430 ng·h/mL
- Cmax ([1]; 50 mg, MAD Cohort B, 50 mg BID (with food), individual subjects, read-out: Cmax, Day 1): 933 ng/mL
- Cmax ([1]; 50 mg, MAD Cohort B, 50 mg BID (with food), individual subjects, read-out: Cmax, SS): 2950 ng/mL
- AUC ([1]; 50 mg, MAD Cohort B, 50 mg BID (with food), steady state, Mean, read-out: AUC_TAU): 28900 ng·h/mL
- AUC ([1]; 50 mg, MAD Cohort B, 50 mg BID (with food), steady state, individual subjects, read-out: AUC_TAU): 29700 ng·h/mL
- AUC ([1]; 75 mg, MAD Cohort A, 75 mg BID (4 h fasting), Mean, read-out: AUCtau, Day 1): 10400 ng·h/mL
- Cmax ([1]; 75 mg, MAD Cohort A, 75 mg BID (4 h fasting), Mean, read-out: Cmax, Day 1): 1120 ng/mL
- Cmax ([1]; 75 mg, MAD Cohort A, 75 mg BID (4 h fasting), Mean, read-out: Cmax, SS): 4050 ng/mL
- half-life ([1]; 75 mg, MAD Cohort A, 75 mg BID (4 h fasting), Mean): 21.4 h
- AUC ([1]; 75 mg, MAD Cohort A, 75 mg BID (4 h fasting), individual subjects, read-out: AUCtau, Day 1): 10600 ng·h/mL
- Cmax ([1]; 75 mg, MAD Cohort A, 75 mg BID (4 h fasting), individual subjects, read-out: Cmax, Day 1): 1060 ng/mL
- Cmax ([1]; 75 mg, MAD Cohort A, 75 mg BID (4 h fasting), individual subjects, read-out: Cmax, SS): 4580 ng/mL
- AUC ([1]; 75 mg, MAD Cohort A, 75 mg BID (4 h fasting), steady state, Mean, read-out: AUC_TAU): 41000 ng·h/mL
- AUC ([1]; 75 mg, MAD Cohort A, 75 mg BID (4 h fasting), steady state, individual subjects, read-out: AUC_TAU): 46200 ng·h/mL
- AUC ([1]; 75 mg, MAD Cohort C, 75 mg BID (with food), Mean, read-out: AUCtau, Day 1): 10600 ng·h/mL
- Cmax ([1]; 75 mg, MAD Cohort C, 75 mg BID (with food), Mean, read-out: Cmax, Day 1): 1250 ng/mL
- Cmax ([1]; 75 mg, MAD Cohort C, 75 mg BID (with food), Mean, read-out: Cmax, SS): 3940 ng/mL
- half-life ([1]; 75 mg, MAD Cohort C, 75 mg BID (with food), Mean): 22 h
- Cmax ([1]; 75 mg, MAD Cohort C, 75 mg BID (with food), individual subjects, read-out: Cmax, Day 1): 1780 ng/mL
- AUC ([1]; 75 mg, MAD Cohort C, 75 mg BID (with food), steady state, Mean, read-out: AUC_TAU): 40300 ng·h/mL
- AUC ([1]; 100 mg, MAD Cohort D, 100 mg BID (with food), Mean, read-out: AUCtau, Day 1): 12900 ng·h/mL
- Cmax ([1]; 100 mg, MAD Cohort D, 100 mg BID (with food), Mean, read-out: Cmax, Day 1): 1480 ng/mL
- Cmax ([1]; 100 mg, MAD Cohort D, 100 mg BID (with food), Mean, read-out: Cmax, SS): 5680 ng/mL
- half-life ([1]; 100 mg, MAD Cohort D, 100 mg BID (with food), Mean): 23.1 h
- AUC ([1]; 100 mg, MAD Cohort D, 100 mg BID (with food), individual subjects, read-out: AUCtau, Day 1): 11600 ng·h/mL
- Cmax ([1]; 100 mg, MAD Cohort D, 100 mg BID (with food), individual subjects, read-out: Cmax, Day 1): 1560 ng/mL
- Cmax ([1]; 100 mg, MAD Cohort D, 100 mg BID (with food), individual subjects, read-out: Cmax, SS): 5210 ng/mL
- half-life ([1]; 100 mg, MAD Cohort D, 100 mg BID (with food), individual subjects): 24.3 h
- AUC ([1]; 100 mg, MAD Cohort D, 100 mg BID (with food), steady state, Mean, read-out: AUC_TAU): 60400 ng·h/mL
- fraction unbound ([2]; dog, Dog plasma, read-out: fup (Dog), unbound fraction in plasma): 0.416
- fraction unbound ([2]; human, Human plasma, 0.1 to 10 μM, read-out: fup (Human), unbound fraction in plasma): 0.144 to 0.164
- fraction unbound ([2]; human, read-out: fu, free fraction of Compound I in plasma): 0.14 to 0.18
